# Assay results: patent US8710038B2, “Pyrazole kinase modulators and methods of use” (Exelixis, Inc., priority 2004, dated 2014)
# What was measured:
# [1] = target: EGFR (Homo sapiens, UniProt P00533); assay: EGFR kinase inhibition assay; assay type: biochemical
# Description: (§1) Kinase activity and compound inhibition are investigated using one or more of the three assay formats described below. The ATP concentrations for each assay are selected to be close to the Michaelis-Menten constant (KM) for each individual kinase. Dose-response experiments are performed at 10 different inhibitor concentrations in a 384-well plate format. The data are fitted to four-parameter equation (2) below; where Y is the observed signal, X is the inhibitor concentration, Min is the background signal in the absence of enzyme (0% enzyme activity), Max is the signal in the absence of inhibitor (100% enzyme activity), IC50 is the inhibitor concentration at 50% enzyme inhibition and H represents the empirical Hill's slope to measure the cooperativity. Typically H is close to unity. Y=Min+(Max−Min)/(1+(X/IC50)^H) Equation (2) ^33P Phosphoryl Transfer Assay: […]
# (§2) Greiner 384-well white, clear bottom, high binding plates are coated with 2 μg/well of protein or peptide substrate in a 50 μL volume overnight at ambient temperature. The coating buffer typically contains 40 μg/mL substrate, 22.5 mM Na2CO3, 27.5 mM NaHCO3, 150 mM NaCl and 3 mM NaN3. The coating solution is aspirated and the plates are washed once with 50 μL of assay buffer and padded dry. Subsequently compounds and enzymes are mixed with γ^33P-ATP (3.3 μCi/nmol) in a total volume of 20 uL in suitable assay buffers. The mixture is incubated at ambient temperature for 1.5-2.5 hrs and terminated by aspiration using a Molecular Devices EMBLA 96-head plate washer. The plates are subsequently washed 6-12 times with PBST or TBS buffer. Scintillation fluid (50 μl/well) is then added, the plates are sealed and activity assessed by liquid scintillation spectrometry using a Perkin Elmer MicroBeta TriLux.
# (§3) In the LCCA assays, kinase activity is measured as the percent ATP consumed following the kinase reaction using luciferase-luciferin-coupled chemiluminescence. Greiner 384-well white, clear bottom, medium-binding plates are used for LCCA. Briefly, the kinase reaction is initiated by mixing compounds, ATP and kinase in a 20 uL volume. The mixture is incubated at ambient temperature for 2-4 hrs. At the end of the kinase reaction, a 20 uL luciferase-luciferin mix is added and the chemiluminescent signal is read using a Wallac Victor^2 reader. The luciferase-luciferin mix consists of 50 mM HEPES, pH 7.8, 8.5 ug/mL oxalic acid (pH 7.8), 5 (or 50) mM DTT, 0.4% Triton X-100, 0.25 mg/mL coenzyme A, 63 uM AMP, 28 ug/mL luciferin and 40,000 units of light/mL luciferase. For the LCCA assays, total ATP consumption has been standardized to 25-45% and the IC50 values correlates well with those determined by radiometric assays.
# (§4) AlphaScreen technology is a proximity assay which utilizes the increase in fluorescent signal occurring when donor and acceptor beads are close in proximity. Biotinylated poly(Glu,Tyr) 4:1 is used as the kinase substrate, in conjunction with streptavidin-coated donor beads and anti-phosphortyrosine antibody PY100-coated acceptor beads. Upon phosphorylation, the peptide substrate can bind to both donor and acceptor beads giving rise to an increase in fluorescence. Compounds, ATP, biotinylated poly(Glu, Tyr) and kinases are mixed in a volume of 20 uL for 1 hr at ambient temperature using Greiner 384-well white clear bottom medium binding plates. Following incubation a 10 uL solution containing […] AlphaScreen beads, 75 mM Hepes, pH 7.4, 300 mM NaCl, 120 mM EDTA, 0.3% BSA and 0.03% Tween-20 is added to each well. After 2-16 hr incubation of the beads, plates are read in a Perkin Elmer AlphaQuest reader. The IC50 values correlates well with those of radiometric assays.
# [2] = target: T1, EphB4 (Homo sapiens, UniProt P54760); assay: EphB4 kinase inhibition assay; assay type: biochemical
# T1 sequence (P54760 16-987): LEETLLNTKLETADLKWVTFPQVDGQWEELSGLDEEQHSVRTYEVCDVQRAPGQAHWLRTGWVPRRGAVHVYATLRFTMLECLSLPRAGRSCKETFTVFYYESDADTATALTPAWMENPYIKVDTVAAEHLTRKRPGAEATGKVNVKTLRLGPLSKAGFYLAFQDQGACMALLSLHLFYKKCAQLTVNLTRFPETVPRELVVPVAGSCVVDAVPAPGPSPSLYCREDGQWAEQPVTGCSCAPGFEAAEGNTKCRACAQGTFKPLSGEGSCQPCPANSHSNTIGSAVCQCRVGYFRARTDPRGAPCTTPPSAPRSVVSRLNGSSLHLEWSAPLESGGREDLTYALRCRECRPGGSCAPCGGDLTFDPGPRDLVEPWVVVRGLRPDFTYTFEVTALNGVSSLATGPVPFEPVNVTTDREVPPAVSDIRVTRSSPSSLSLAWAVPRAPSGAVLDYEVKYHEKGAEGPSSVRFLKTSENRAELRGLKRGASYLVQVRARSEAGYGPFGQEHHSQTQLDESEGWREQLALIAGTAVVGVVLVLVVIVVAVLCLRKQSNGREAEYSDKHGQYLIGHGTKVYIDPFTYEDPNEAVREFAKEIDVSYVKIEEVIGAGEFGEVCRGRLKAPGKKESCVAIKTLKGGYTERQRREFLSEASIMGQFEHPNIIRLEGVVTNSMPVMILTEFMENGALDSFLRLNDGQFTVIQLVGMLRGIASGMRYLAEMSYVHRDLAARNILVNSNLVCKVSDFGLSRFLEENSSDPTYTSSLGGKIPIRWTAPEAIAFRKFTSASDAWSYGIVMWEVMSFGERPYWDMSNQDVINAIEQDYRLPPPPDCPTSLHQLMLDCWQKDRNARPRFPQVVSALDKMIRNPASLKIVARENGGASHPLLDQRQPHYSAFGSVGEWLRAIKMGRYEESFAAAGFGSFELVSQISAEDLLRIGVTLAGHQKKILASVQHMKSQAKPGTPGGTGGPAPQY
# Description: as §1, §2, §3, §4
# [3] = target: T2, flt-3 (Homo sapiens, UniProt P36888); assay: flt-3 Luciferase-Coupled Chemiluminescent Kinase assay (LCCA); assay type: biochemical
# T2 construct: baculovirus expressed human Flt-3 kinase domain R571-S993
# T2 sequence (P36888 571-993): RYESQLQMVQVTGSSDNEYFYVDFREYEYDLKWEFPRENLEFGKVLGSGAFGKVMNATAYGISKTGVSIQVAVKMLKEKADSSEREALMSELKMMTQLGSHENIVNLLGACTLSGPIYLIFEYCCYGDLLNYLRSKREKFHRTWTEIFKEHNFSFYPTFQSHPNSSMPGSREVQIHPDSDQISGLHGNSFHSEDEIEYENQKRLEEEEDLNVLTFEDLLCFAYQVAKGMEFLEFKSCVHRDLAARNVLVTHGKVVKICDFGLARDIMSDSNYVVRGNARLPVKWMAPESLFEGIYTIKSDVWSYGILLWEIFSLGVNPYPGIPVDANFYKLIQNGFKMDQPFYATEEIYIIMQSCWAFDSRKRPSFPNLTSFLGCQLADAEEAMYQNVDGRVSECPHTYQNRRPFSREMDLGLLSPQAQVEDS
# Description: as §3
# Flt-3 biochemical activity was assessed using a Luciferase-Coupled Chemiluminescent Kinase assay (LCCA) format. Kinase activity was measured as the percent ATP remaining following the kinase reaction. Remaining ATP was detected by luciferase-luciferin-coupled chemiluminescence. Specifically, the reaction was initiated by mixing test compounds, 5 μM ATP, 3 μM poly-EY and 5 nM Flt-3 (baculovirus expressed human Flt-3 kinase domain R571-S993) in a 20 uL assay buffer (20 mM Tris-HCL pH7.5, 10 mM MgCl2, 0.01% Triton X-100, 1 mM DTT, 2 mM MnCl2). The mixture is incubated at ambient temperature for 3 hours after which 20 uL luciferase-luciferin mix is added and the chemiluminescent signal read using a Wallac Victor^2 reader. The luciferase-luciferin mix consists of 50 mM HEPES, pH 7.8, 8.5 ug/mL oxalic acid (pH 7.8), 5 (or 50) mM DTT, 0.4% Triton X-100, 0.25 mg/mL coenzyme A, 63 uM AMP, 28 ug/mL luciferin and 40,000 units of light/mL luciferase.
# [4] = target: c-Kit (Homo sapiens, UniProt P10721); assay: c-Kit biochemical assay (AlphaScreen)
# c-Kit, sequence (P10721 26-976): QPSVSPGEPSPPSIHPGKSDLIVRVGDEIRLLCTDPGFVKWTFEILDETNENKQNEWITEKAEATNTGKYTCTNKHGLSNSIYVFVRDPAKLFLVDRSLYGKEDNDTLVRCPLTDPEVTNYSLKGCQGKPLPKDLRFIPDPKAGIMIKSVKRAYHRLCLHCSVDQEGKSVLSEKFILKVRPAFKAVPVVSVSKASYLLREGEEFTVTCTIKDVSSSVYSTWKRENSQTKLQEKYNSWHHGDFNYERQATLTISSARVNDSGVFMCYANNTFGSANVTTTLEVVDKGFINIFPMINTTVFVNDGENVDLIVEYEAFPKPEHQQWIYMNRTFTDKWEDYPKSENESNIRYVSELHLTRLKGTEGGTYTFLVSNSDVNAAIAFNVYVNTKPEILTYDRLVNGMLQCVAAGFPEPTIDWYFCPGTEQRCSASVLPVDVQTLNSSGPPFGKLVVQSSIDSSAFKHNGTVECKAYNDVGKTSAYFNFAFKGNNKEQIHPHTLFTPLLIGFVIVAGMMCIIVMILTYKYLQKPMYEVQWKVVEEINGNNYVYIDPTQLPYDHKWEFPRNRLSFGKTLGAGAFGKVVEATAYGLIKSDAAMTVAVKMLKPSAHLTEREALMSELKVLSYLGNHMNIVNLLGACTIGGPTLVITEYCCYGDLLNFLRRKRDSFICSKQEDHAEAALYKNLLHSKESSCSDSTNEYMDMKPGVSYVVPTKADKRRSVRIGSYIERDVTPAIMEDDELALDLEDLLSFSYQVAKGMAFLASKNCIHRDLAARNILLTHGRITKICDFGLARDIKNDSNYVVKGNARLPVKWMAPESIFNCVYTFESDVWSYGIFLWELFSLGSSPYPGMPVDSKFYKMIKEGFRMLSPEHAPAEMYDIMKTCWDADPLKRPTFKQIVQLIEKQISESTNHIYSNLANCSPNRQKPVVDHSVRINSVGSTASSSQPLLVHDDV
# Description: as §4
# c-Kit biochemical activity was assessed using AlphaScreen™ (Perkin Elmer) technology, described above. Test compounds, ATP, biotinylated poly(Glu, Tyr) and c-Kit kinase were combined in a volume of 20 μL in a 384-well white, medium binding microtiter plate (Greiner). Reaction mixtures were incubated for 1 hr at ambient temperature. Reactions were quenched by addition of 10 uL of […] AlphaScreen bead suspension containing 75 mM Hepes, pH 7.4, 300 mM NaCl, 120 mM EDTA, 0.3% BSA and 0.03% Tween-20. After 16 hr incubation at ambient temperature plates were read using an AlphaQuest reader (Perkin Elmer).
# EGFR, sequence (P00533 25-1210, species assumed): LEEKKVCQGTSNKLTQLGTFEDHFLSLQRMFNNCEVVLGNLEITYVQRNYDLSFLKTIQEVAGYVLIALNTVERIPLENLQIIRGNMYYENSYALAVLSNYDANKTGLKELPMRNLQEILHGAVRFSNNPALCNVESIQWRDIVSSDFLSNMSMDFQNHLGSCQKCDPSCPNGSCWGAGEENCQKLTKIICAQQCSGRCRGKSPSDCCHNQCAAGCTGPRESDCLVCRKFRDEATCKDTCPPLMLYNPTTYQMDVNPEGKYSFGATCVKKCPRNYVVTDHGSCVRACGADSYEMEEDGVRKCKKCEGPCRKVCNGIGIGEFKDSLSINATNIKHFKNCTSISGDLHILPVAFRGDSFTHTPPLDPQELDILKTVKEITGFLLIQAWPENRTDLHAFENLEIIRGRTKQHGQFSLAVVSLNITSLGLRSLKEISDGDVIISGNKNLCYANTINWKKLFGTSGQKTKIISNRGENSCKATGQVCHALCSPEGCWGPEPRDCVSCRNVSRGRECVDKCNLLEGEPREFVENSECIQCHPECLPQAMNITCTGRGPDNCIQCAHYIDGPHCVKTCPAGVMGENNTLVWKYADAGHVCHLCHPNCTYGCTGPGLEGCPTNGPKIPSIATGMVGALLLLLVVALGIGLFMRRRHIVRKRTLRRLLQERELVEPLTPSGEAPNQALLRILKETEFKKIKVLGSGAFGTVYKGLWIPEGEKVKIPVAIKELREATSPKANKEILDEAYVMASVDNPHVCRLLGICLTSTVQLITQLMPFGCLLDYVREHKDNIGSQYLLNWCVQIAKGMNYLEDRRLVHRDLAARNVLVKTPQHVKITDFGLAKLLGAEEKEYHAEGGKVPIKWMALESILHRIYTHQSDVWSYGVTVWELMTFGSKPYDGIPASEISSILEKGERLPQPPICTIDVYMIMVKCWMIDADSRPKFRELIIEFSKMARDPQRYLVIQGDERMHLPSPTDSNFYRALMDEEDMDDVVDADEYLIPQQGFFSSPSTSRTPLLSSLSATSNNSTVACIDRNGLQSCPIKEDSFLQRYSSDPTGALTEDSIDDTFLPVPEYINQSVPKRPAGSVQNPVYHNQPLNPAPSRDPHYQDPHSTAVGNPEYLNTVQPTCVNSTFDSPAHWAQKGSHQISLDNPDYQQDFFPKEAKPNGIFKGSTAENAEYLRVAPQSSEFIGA
IC50 [1],IC50 [2],IC50 [3],IC50 [4],Compound
> 5 µM,0.5 to 5 µM,< 0.05 µM,< 0.05 µM,"CN1CCN(c2ccc3nc(-c4cc(/C=C/c5ccc(O)cc5)[nH]n4)[nH]c3c2)CC1 [Entry 1, 4-((E)-2-{3-[6-(4-methylpiperazin-1-yl)-1H-benzimidazol-2-yl]-1H-pyrazol-5-yl}ethenyl)phenol]"
> 5 µM,> 5 µM,< 0.05 µM,< 0.05 µM,"CCN1CCN(c2ccc3[nH]c(-c4cc(-c5ccc(NC(=O)Nc6ccc(Cl)c(C(F)(F)F)c6)cc5)[nH]n4)nc3c2)CC1 [Entry 2, N-[4-chloro-3-(trifluoromethyl)phenyl]-N′-(4-{3-[5-(4-ethylpiperazin-1-yl)-1H-benzimidazol-2-yl]-1H-pyrazol-5-yl}phenyl)urea]"
> 5 µM,0.5 to 5 µM,< 0.05 µM,< 0.05 µM,"CCc1cccc(NC(=O)Nc2ccc(-c3cc(-c4nc5cc(N6CCN(CC)CC6)ccc5[nH]4)n[nH]3)cc2)c1 [Entry 3, N-(3-ethylphenyl)-N′-(4-{3-[5-(4-ethylpiperazin-1-yl)-1H-benzimidazol-2-yl]-1H-pyrazol-5-yl}phenyl)urea]"
> 5 µM,0.5 to 5 µM,< 0.05 µM,< 0.05 µM,"CCN1CCN(c2ccc3[nH]c(-c4cc(-c5ccc(NC(=O)Nc6cccc(C(F)(F)F)c6)cc5)[nH]n4)nc3c2)CC1 [Entry 4, N-(4-{3-[5-(4-ethylpiperazin-1-yl)-1H-benzimidazol-2-yl]-1H-pyrazol-5-yl}phenyl)-N′-[3-(trifluoromethyl)phenyl]urea]"
> 5 µM,0.5 to 5 µM,< 0.05 µM,< 0.05 µM,"CC(=O)c1cccc(NC(=O)Nc2ccc(-c3cc(-c4nc5cc(N6CCN(C)CC6)ccc5[nH]4)n[nH]3)cc2)c1 [Entry 5, N-(3-acetylphenyl)-N′-(4-{3-[5-(4-methylpiperazin-1-yl)-1H-benzimidazol-2-yl]-1H-pyrazol-5-yl}phenyl)urea]"
> 5 µM,> 5 µM,< 0.05 µM,< 0.05 µM,"CN1CCN(c2ccc3[nH]c(-c4cc(-c5ccc(NC(=O)Nc6ccc(Cl)c(Cl)c6)cc5)[nH]n4)nc3c2)CC1 [Entry 6, N-(3,4-dichlorophenyl)-N′-(4-{3-[5-(4-methylpiperazin-1-yl)-1H-benzimidazol-2-l]-1H-pyrazol-5-yl}phenyl)urea]"
> 5 µM,> 5 µM,< 0.05 µM,< 0.05 µM,"CN1CCN(c2ccc3nc(-c4cc(-c5ccc(NC(=O)Nc6cccc(Br)c6)cc5)[nH]n4)[nH]c3c2)CC1 [Entry 7, N-(3-bromophenyl)-N′-(4-{3-[6-(4-methylpiperazin-1-yl)-1H-benzimidazol-2-yl]-1H-pyrazol-5-yl}phenyl)urea]"
> 5 µM,> 5 µM,< 0.05 µM,< 0.05 µM,"CN1CCN(c2ccc3[nH]c(-c4cc(-c5ccc(NC(=O)Nc6ccc(F)c(C(F)(F)F)c6)cc5)[nH]n4)nc3c2)CC1 [Entry 8, N-[4-fluoro-3-(trifluoromethyl)phenyl]-N′-(4-{3-[5-(4-methylpiperazin-1-yl)-1H-benzimidazol-2-yl]-1H-pyrazol-5-yl}phenyl)urea]"
> 5 µM,> 5 µM,< 0.05 µM,< 0.05 µM,"CN1CCN(c2ccc3[nH]c(-c4cc(-c5ccc(NC(=O)Nc6ccc(Oc7ccccc7)cc6)cc5)[nH]n4)nc3c2)CC1 [Entry 9, N-(4-{3-[5-(4-methylpiperazin-1-yl)-1H-benzimidazol-2-yl]-1H-pyrazol-5-yl}phenyl)-N′-[4-(phenyloxy)phenyl]urea]"
–,> 5 µM,< 0.05 µM,< 0.05 µM,"CN1CCN(c2ccc3[nH]c(-c4cc(-c5ccc(NC(=O)Nc6cccc(Cl)c6)cc5)[nH]n4)nc3c2)CC1 [Entry 10, N-(3-chlorophenyl)-N′-(4-{3-[5-(4-methylpiperazin-1-yl)-1H-benzimidazol-2-yl]-1H-pyrazol-yl}phenyl)urea]"
> 5 µM,> 5 µM,–,< 0.05 µM,"O=C(Nc1ccccc1)Nc1ccc(-c2cc(-c3nc4ccccc4[nH]3)n[nH]2)cc1 [Entry 33, N-{4-[3-(1H-benzimidazol-2-yl)-1H-pyrazol-5-yl]phenyl}-N′-phenylurea]"
